Reference: ChEMBL document CHEMBL2074558, “rOCT2 is a basolateral potential-driven carrier, not an organic cation/proton exchanger” (Am J Physiol, 1999)
Values belong to the compound of their own block, whether it stands above or below them.

How the values were obtained:
Assay type in all cases: functional, cell-based
[1] = biological target: T1, Solute carrier family 22 member 2 (Rattus norvegicus, UniProt Q9R0W2); assay: TP_TRANSPORTER: inhibition of TEA uptake (apical to cell)(TEA: 100 uM, NMN: 5000 uM) in OCT2-expressing MDCK cells; conditions: dog
T1 sequence (Q9R0W2 whole entry): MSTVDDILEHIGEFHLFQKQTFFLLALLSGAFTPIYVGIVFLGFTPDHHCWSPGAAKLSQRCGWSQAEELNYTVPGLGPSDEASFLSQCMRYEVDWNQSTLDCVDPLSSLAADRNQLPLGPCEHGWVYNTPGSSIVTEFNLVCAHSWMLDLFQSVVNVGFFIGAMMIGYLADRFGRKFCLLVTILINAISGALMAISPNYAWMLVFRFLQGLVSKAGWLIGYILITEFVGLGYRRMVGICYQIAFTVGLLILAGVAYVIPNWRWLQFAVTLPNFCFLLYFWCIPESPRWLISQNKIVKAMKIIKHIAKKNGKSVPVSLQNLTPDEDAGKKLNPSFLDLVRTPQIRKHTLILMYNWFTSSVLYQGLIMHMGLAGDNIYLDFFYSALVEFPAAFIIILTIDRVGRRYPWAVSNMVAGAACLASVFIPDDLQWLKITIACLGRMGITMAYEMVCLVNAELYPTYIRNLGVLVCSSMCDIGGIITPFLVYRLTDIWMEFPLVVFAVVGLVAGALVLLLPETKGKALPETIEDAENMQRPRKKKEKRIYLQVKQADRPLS

[2] = biological target: T1, Solute carrier family 22 member 2; assay: TP_TRANSPORTER: TEA uptake (TEA: 200 uM, Quinine: 200 uM) in Xenopus laevis oocytes; conditions: oocyte
[3] = biological target: T1, Solute carrier family 22 member 2; assay: TP_TRANSPORTER: inhibition of TEA uptake (apical to cell)(TEA: 100 uM, Quinine: 200 uM) in OCT2-expressing MDCK cells; conditions: dog
[4] = biological target: T1, Solute carrier family 22 member 2; assay: TP_TRANSPORTER: inhibition of TEA uptake (apical to cell)(TEA: 100 uM, Quinacrine: 200 uM) in OCT2-expressing MDCK cells; conditions: dog
[5] = biological target: T1, Solute carrier family 22 member 2; assay: TP_TRANSPORTER: TEA uptake (TEA: 200 uM, Quinacrine: 200 uM) in Xenopus laevis oocytes; conditions: oocyte

Activity [1]: inhibitor [+]
SMILES: CNC(=O)c1cccnc1 [NICOTINYL METHYLAMIDE]

Activity [2]: inhibitor [+]
Activity [3]: inhibitor [+]
SMILES: C=C[C@H]1C[N@@]2CC[C@H]1C[C@H]2[C@H](O)c1ccnc2ccc(OC)cc12 [QUININE]

Activity [4]: inhibitor [+]
Activity [5]: inhibitor [+]
SMILES: CCN(CC)CCCC(C)Nc1c2ccc(Cl)cc2nc2ccc(OC)cc12 (stereo not given) [QUINACRINE]
